Experimental data reported in ChEMBL document CHEMBL1201862, “PubChem BioAssay data set” (2004).
The source made the active and inactive calls. Peptide text beside a SMILES is read from it. * marks the point of attachment. Cbz = O=C(OCc1ccccc1)*

Assays:
Melanocortin receptor 4 = Melanocortin receptor 4 (Homo sapiens, UniProt P32245); experiment: inhibitors of MC4R cAMP signaling – cell-based, TR-FRET, biased antagonists, dose response (AID 602298); format: functional;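 also: antagonist potency against agonist-stimulated cAMP production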
[1] = cAMP pathway inhibition in counterscreen cell line – TR-FRET cAMP detection, counter-screen for MC4R biased antagonist project, dose response (AID 602305); format: functional, cell-based;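 also: U2OS cells stimulated with forskolin near its EC80 as the cAMP inducer; potency is for inhibition of forskolin-stimulated cAMP signaling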
[2] = Luminescence Cell-Based Dose Confirmation HTS to Identify Activators of 5'UTR Stem-Loop Driven Alpha-Synuclein mRNA Translation in H4 Neuroglioblastoma Cells. [Related pubchem assays: 1829 (Project Summary), 1814 (Primary HTS)]; format: functional
[3] = Luminescence Cell-Based Dose Response HTS to Identify Activators of Luciferase Translation or Activity in H4 […] Cells. [Related pubchem assays: 1829 (Project Summary), 1814 (Primary HTS)]; format: functional
H4 = experiment: Luminescence Cell-Based Dose Response HTS to Identify Activators of 5'UTR Stem-Loop Driven Prion Protein mRNA Translation in H4 Neuroglioblastoma Cells. [Related pubchem assays: 1829 (Project Summary), 1814 (Primary HTS)]; format: functional; settings: Homo sapiens
[4] = target: 26S proteasome non-ATPase regulatory subunit 14 (Homo sapiens, UniProt O00487); experiment: inhibition of proteasome subunit RPN11 – biochemical, fluorescence polarization, uHTS hits, confirmation (AID 602368); format: functional
[5] = target: 72 kDa type IV collagenase (Homo sapiens, UniProt P08253); experiment: Dose Response validation of uHTS RPN11 inhibitor hits using a MMP-2 Fluorescence assay.; format: functional
Prothrombin = Prothrombin (Bos taurus, UniProt P00735); experiment: thrombin protease inhibitors – biochemical, fluorescence polarization, uHTS hits, dose response (AID 602369); format: functional
[6] = target: T1, Rac GTPase-activating protein 1 (Homo sapiens, UniProt Q9H0H5); experiment: blockers of MgcRacGAP-driven Rac1 GTP hydrolysis – biochemical, ADP Hunter fluorescence, primary and confirmatory, confirmation (AID 624330); format: functional
T1 sequence (Q9H0H5 whole entry): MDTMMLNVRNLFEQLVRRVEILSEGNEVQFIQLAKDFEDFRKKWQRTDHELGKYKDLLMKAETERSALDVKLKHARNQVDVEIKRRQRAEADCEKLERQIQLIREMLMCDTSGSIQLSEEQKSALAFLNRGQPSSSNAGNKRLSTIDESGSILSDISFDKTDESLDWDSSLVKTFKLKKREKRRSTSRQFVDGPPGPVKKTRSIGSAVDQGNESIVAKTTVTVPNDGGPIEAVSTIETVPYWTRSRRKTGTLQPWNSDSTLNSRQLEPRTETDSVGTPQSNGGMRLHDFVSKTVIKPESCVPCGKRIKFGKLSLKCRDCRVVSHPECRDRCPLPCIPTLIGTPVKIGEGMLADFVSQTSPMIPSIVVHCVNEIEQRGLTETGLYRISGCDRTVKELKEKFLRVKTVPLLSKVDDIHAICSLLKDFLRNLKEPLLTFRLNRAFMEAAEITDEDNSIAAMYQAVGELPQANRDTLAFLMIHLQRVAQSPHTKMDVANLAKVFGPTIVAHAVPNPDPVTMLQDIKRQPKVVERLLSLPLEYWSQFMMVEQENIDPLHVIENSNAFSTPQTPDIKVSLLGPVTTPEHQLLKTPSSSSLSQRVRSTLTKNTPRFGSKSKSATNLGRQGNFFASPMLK

BJ [7] = experiment: BJ-TERT fibroblast viability loss – cell-based, RAS-independent, luminescence, dose response (AID 1933); format: functional; settings: Homo sapiens
BJ [8] = experiment: cells; format: functional, cell-based; settings: Homo sapiens
[9] = target: Luciferin 4-monooxygenase (Photinus pyralis, UniProt P08659); experiment: inhibition of purified Photinus pyralis luciferase – biochemical, luminescence, dose response (AID 1891)
[10] = Luminescence Cell-Based Dose Confirmation HTS to Identify Inhibitors of Platelet Dense Granule Release. [Related pubchem assays: 1663 (Primary HTS), 1678 (Summary of Project)]; format: functional
BJ [11] = experiment: BJ-TERT-LT-ST fibroblast viability loss – cell-based, RAS-independent, luminescence, dose response (AID 1935); format: functional; settings: Homo sapiens;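 also: BJ fibroblasts immortalized with TERT plus LT and ST oncogenes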
[12] = DRD fibroblast viability loss – cell-based, non-viral oncogenic, luminescence, dose response (AID 1934); format: functional; settings: Homo sapiens
[13] = ADP-Glo luciferase signal interference – biochemical, luminescence, cherry-picked samples, set 2, artefact control for CDK5 inhibitor project, dose response (AID 504546); format: functional, cell-based
[14] = target: Cyclin-dependent kinase 5/CDK5 activator 1 (Homo sapiens, UniProt Q00535); experiment: blockade of human CDK5 activity – biochemical, cherry-picked samples, set 2, dose response (AID 504545)
BJ [15] = experiment: growth inhibition of engineered Ras-driven BJ cells – cell-based, alamar blue fluorescence, cherrypicked samples, dose response (AID 2631); format: functional; settings: Homo sapiens;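 also: confirmatory dose-response assay in RAS-dependent BJ fibroblasts engineered with TERT, LT and ST, with cytotoxicity read by fluorescence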
[16] = target: Dual specificity tyrosine-phosphorylation-regulated kinase 1A (Rattus norvegicus, UniProt Q63470); format: biochemical, Homo sapiens
[17] = bead-based luminescence quenchers, dual-tagged ARNT – biochemical, AlphaScreen, cherry-pick, artefact control for ARNT-TACC3 interaction inhibitor project, dose response (AID 651705); format: functional;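 also: AlphaScreen bead proximity signal that flags compounds interfering with the detection technology; potency reflects signal decrease which marks the compound as an assay artifact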
[18] = NIH-3T3 fibroblast cytotoxicity, dose response, cytotoxicity control, cell-based, fluorescence, Alamar Blue, secondary assay (AID 2327); format: functional;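 also: NIH-3T3 mouse fibroblasts cultured with fluconazole at 8 µg/mL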
[19] = fluconazole-exposed Candida albicans growth modulators – fluorescence, retest, confirmation (AID 2467); format: functional, cell-based
[20] = target: T2, Serine/threonine-protein phosphatase (Candida dubliniensis (strain CD36 / CBS 7987 / NCPF 3949 / NRRLY-17841) (Yeast), UniProt B9W6M3); experiment: blockers of CaCl2-induced CDRE-lacZ signaling – S. cerevisiae, luminescence, secondary, dose response (AID 2388); format: functional, cell-based;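 also: yeast reporter cells carrying a calcineurin-responsive lacZ construct stimulated with calcium chloride; luminescent beta-galactosidase reporter signal in whole cells rather than isolated phosphatase activity; potency for inhibition where a drop in reporter signal means calcineurin blockade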
T2 sequence (B9W6M3 whole entry): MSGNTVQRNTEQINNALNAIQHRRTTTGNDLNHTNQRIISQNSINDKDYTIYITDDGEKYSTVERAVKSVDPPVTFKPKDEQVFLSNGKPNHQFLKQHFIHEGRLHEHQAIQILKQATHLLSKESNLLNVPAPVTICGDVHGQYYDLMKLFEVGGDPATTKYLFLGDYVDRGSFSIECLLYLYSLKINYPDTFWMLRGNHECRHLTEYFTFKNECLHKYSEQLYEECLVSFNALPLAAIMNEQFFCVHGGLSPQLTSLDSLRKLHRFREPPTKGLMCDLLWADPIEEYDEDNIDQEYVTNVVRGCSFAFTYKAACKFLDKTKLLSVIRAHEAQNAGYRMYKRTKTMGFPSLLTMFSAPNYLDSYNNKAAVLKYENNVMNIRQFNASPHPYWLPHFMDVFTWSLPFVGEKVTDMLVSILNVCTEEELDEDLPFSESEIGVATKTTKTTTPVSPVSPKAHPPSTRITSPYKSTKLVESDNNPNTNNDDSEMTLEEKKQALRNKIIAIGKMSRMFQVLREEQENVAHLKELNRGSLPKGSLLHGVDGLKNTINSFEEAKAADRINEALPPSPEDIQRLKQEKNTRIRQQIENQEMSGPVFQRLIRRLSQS

[21] = target: Benomyl/methotrexate resistance protein (Candida albicans, UniProt P28873); experiment: Candida albicans Mdr1 pump inhibition curves – singleplex, Cherry Pick1 hits, dose response (AID 588608); format: functional
[22] = target: ATP-dependent molecular chaperone HSP82 (Candida albicans (strain WO-1) (Yeast), UniProt C4YTQ8); experiment: steroid-induced GRE reporter decrease in yeast – S. cerevisiae, luminescence, Hsp90 inhibitor project, dose response (AID 2400); format: functional, cell-based;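 also: beta-galactosidase luminescence from glucocorticoid response element reporter as proxy for Hsp90 function; inhibitor potency where signal loss means Hsp90 inhibition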
Interleukin-8 [23] = target: T3, Interleukin-8 (Homo sapiens, UniProt P10145); experiment: Dose Response confirmation of uHTS small molecule hits for cystic fibrosis induced NFkb Inhibitors in a TNFa-induced IL8 counterscreen.; format: functional; settings: read-out: IC50_Mean
Interleukin-8 [24] = target: T3, Interleukin-8; experiment: Dose Response confirmation of uHTS small molecule hits for cystic fibrosis induced NFkb Inhibitors in a PAF-induced IL8 counterscreen.; format: functional; settings: read-out: IC50_Mean
Fatty acid synthase [25] = target: T4, Fatty acid synthase (Homo sapiens, UniProt P49327); experiment: inhibition of human FAS-TE enzyme activity – biochemical, endpoint fluorescence intensity, uHTS hits, dose response (AID 624327); format: functional;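 also: fluorescence from hydrolysis of an O-methyl fluorescein acyl ester substrate by the enzyme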
Fatty acid synthase [26] = target: T4, Fatty acid synthase; experiment: inhibition of human FAS-TE enzyme activity – biochemical, kinetic fluorescence intensity, dose response (AID 624326); format: functional;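 also: rate of fluorescence rise from hydrolysis of a fluorogenic O-methyl fluorescein ester substrate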
[27] = target: DNA dC->dU-editing enzyme APOBEC-3G (Homo sapiens, UniProt Q9HC16); experiment: inhibition of APOBEC3G ssDNA deamination – biochemical, fluorescence, single-stranded DNA substrate, SAR follow-up (AID 602136); format: functional; settings: read-out: IC50_Mean
[28] = target: DNA dC->dU-editing enzyme APOBEC-3A (Homo sapiens, UniProt P31941); experiment: SAR analysis of small molecule inhibitors of APOBEC3A DNA Deaminase via a fluorescence-based single-stranded DNA deaminase assay.; format: functional; settings: read-out: IC50_Mean
[29] = viability loss in HeLa cells – cytotoxicity control for MgcRacGAP inhibitor project, dose response (AID 624300); format: functional
[30] = A Cell Based Secondary Assay to Explore Cytotoxicity in THP-1 Cells of Compounds that Modulate Mycobacterium tuberculosis in Media Containing Glycerol versus Media without Glycerol (2).; format: functional
[31] = Vero cell cytotoxicity, cytotoxicity control for M. tuberculosis inhibitor project, purified and synthesized samples, set 3 (AID 504684); format: functional
[32] = Trypanosoma cruzi growth suppression in host cells – NIH3T3 host cells, beta-gal luminescence, confirmation (AID 2044); format: functional, cell-based;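 also: intracellular parasites grown in NIH/3T3 mouse fibroblasts as host cells; luminescent beta-galactosidase reporter signal from transgenic T. cruzi replicating inside host cells; inhibitors lower the luminescence signal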
[33] = NIH3T3 cell viability loss – ATP luminescence, mouse fibroblasts, counter-screen, dose response (AID 2010); format: functional, cell-based;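 also: cells exposed to compound for about 90 hours before reading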
[34] = target: Heat shock protein HSP 90-alpha (Homo sapiens, UniProt P07900); format: functional, organism-based
[35] = target: Aryl hydrocarbon receptor (Homo sapiens, UniProt P35869); settings: Potency;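 also: confirmatory quantitative high-throughput screen measuring activation of the AhR signaling pathway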

Chain of DNA dC->dU-editing enzyme APOBEC-3A (P31941 whole entry): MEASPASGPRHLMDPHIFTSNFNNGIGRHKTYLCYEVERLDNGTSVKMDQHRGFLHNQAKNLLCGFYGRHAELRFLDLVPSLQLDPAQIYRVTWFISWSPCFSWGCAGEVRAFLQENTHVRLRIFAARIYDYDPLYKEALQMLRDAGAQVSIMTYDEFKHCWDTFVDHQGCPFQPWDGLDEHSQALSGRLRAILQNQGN
Chain of 26S proteasome non-ATPase regulatory subunit 14 (O00487 whole entry): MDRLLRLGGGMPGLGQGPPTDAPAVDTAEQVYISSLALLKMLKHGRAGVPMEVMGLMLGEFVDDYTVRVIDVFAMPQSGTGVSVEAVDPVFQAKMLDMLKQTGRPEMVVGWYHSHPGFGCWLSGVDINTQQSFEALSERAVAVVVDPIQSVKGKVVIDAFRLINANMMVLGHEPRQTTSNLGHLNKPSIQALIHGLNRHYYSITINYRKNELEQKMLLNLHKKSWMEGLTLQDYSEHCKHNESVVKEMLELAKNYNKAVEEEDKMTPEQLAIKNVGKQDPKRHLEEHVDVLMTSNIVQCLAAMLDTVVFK
Chain of Melanocortin receptor 4 (P32245 whole entry): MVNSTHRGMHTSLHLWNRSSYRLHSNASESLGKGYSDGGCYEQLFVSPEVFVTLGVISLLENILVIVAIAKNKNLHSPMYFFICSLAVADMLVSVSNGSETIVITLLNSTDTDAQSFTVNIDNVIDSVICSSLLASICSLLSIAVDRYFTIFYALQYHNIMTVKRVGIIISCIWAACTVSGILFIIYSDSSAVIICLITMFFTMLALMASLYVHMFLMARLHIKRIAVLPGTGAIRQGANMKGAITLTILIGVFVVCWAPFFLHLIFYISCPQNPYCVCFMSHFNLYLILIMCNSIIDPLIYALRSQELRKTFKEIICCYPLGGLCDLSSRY
T3 sequence (P10145 whole entry): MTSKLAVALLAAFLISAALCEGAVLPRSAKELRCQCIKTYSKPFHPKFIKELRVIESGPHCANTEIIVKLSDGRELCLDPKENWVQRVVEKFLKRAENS
Chain of 72 kDa type IV collagenase (P08253 whole entry): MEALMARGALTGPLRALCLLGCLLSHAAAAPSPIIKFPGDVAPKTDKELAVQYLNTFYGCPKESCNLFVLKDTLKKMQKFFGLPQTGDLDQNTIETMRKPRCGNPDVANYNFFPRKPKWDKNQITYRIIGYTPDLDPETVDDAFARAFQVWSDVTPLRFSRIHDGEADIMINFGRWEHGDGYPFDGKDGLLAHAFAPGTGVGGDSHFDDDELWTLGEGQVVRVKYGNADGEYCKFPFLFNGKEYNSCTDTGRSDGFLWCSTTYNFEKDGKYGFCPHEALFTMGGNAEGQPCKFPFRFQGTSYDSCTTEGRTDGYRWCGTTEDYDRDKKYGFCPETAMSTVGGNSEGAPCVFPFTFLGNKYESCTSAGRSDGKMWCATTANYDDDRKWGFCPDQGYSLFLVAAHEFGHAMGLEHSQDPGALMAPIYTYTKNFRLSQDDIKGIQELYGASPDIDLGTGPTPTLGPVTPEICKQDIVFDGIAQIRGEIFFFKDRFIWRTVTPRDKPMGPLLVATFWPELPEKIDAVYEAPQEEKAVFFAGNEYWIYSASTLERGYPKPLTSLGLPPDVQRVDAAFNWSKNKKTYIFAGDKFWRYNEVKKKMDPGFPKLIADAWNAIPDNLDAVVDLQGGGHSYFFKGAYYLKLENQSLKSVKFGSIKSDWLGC
T4 sequence (P49327 whole entry): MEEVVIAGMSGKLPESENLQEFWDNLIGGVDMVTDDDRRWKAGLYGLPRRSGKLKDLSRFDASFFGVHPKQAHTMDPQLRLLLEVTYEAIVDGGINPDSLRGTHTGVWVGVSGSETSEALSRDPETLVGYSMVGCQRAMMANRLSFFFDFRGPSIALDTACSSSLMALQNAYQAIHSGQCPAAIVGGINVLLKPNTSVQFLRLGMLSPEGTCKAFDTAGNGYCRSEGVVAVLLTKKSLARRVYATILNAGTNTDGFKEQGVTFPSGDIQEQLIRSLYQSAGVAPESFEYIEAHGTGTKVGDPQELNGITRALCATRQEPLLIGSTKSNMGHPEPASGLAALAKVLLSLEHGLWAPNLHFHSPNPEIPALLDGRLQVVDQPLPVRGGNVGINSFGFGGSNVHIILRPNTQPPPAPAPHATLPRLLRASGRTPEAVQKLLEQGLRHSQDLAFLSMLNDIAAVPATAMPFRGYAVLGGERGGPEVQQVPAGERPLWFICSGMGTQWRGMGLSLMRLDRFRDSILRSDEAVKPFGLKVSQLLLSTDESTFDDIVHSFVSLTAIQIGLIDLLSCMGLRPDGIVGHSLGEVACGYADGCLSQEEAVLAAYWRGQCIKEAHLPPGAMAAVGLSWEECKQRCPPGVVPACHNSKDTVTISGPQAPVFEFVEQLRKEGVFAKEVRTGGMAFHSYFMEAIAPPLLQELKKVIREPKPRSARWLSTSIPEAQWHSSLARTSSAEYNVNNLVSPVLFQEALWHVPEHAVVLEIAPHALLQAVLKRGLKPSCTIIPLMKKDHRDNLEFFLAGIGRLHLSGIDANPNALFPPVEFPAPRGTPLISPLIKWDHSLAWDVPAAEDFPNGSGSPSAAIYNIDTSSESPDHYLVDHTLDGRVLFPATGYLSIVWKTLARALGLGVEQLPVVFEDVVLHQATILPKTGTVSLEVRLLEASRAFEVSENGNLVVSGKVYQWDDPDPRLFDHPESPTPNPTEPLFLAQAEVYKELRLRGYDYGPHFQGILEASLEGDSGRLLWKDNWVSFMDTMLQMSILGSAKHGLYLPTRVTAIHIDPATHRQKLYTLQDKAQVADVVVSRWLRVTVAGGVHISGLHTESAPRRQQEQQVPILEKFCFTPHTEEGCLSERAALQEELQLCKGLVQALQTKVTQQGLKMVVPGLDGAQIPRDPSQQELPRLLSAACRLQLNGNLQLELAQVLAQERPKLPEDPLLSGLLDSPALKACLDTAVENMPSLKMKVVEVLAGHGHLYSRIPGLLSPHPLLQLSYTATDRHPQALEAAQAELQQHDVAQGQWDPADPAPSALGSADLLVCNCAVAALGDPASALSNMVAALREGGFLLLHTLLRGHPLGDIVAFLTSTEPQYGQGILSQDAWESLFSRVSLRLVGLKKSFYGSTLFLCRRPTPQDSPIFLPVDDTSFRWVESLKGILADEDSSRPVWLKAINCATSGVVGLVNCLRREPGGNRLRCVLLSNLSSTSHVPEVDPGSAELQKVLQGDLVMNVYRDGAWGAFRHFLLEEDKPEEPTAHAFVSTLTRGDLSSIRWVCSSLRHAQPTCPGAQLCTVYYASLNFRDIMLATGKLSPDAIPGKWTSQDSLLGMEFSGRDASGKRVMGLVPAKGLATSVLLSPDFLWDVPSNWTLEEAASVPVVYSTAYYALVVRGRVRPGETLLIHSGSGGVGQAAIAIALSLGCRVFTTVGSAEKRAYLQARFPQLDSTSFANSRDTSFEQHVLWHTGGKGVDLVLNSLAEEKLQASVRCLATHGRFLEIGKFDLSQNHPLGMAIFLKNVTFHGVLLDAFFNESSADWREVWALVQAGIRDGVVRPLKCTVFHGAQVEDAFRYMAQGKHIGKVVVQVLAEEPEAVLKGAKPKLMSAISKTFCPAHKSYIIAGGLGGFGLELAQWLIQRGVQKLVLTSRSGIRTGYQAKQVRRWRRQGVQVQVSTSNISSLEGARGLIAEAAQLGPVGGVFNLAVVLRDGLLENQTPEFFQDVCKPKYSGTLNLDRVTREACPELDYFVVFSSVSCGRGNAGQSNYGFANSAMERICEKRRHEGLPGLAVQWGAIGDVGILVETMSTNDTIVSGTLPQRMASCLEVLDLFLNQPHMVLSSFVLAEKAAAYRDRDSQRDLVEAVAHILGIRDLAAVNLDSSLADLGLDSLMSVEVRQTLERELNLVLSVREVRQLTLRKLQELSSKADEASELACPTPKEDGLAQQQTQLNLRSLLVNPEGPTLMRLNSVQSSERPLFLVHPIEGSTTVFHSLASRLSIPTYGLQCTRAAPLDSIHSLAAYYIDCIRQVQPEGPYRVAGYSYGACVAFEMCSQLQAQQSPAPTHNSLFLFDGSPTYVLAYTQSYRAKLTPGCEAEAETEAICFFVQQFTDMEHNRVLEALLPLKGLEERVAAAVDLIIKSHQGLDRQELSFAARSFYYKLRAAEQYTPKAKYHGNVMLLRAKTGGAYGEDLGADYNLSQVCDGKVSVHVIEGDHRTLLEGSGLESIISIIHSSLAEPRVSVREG
Chain of DNA dC->dU-editing enzyme APOBEC-3G (Q9HC16 whole entry): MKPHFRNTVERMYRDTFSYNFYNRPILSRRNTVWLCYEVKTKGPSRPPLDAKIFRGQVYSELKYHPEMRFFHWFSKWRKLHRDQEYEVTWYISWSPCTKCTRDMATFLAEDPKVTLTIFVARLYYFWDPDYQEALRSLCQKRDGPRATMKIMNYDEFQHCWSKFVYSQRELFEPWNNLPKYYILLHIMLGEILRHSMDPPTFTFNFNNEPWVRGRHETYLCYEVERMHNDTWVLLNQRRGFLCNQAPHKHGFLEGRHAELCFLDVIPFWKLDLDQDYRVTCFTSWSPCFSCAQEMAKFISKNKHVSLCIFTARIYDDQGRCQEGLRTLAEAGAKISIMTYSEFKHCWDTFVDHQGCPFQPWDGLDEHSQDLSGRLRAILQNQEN
Chain of Luciferin 4-monooxygenase (P08659 whole entry): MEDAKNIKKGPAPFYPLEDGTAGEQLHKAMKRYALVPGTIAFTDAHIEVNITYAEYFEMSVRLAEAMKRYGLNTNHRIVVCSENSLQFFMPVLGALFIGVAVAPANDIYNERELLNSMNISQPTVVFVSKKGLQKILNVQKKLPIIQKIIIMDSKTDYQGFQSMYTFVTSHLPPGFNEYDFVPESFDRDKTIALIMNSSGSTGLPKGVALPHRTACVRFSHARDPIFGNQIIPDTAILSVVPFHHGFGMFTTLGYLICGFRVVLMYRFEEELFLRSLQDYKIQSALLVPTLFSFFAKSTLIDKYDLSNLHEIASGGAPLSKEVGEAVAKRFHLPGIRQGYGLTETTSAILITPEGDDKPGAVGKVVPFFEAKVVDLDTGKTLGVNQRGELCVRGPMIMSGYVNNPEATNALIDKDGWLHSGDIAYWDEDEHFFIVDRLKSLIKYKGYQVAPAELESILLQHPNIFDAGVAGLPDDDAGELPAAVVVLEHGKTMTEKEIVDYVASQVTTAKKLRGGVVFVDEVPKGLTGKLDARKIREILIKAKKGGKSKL

O=C(COC(=O)CCN1C(=O)c2cccc([N+](=O)[O-])c2C1=O)NCc1ccccc1
IC50 (Melanocortin receptor 4): > 64.6 µM (inactive)
IC50 [1]: > 64.6 µM (inactive)

Cc1c(N=Nc2ccc(N(C)C)cc2)c(=O)n(-c2ccccc2)n1C
EC50 [2]: 11.1 µM (active)
EC50 [3]: 6.8 µM (active)
EC50 (H4): 34.5 µM (active)
IC50 [4]: 73.1 µM (active)
IC50 [5]: > 100 µM (inactive)
IC50 (Prothrombin): 42.8 µM (active)
IC50 [6]: 56.9 µM (active)

O=C(c1ccc2c3n(nc2c1)-c1ccccc1CO3)N1CCOCC1
EC50 (BJ [7]): 4.57 µM (inconclusive)
EC50 (BJ [8]): 3.76 µM (active)
EC50 [9]: 1.55 µM (active)
EC50 [10]: 10.8 µM (active)
EC50 (BJ [11]): 17 µM (active)
EC50 [12]: 5.29 µM (active)
AC50 [13]: 17.7 µM (active)
AC50 [14]: 12.3 µM (active)
EC50 (BJ [15]): > 133 µM (inactive)
AC50 [16]: 12.6 µM (active)

O=C(COc1ccccc1)Nc1nnc(-c2ccccc2)o1
AC50 [17]: 93.8 µM (active)

Cn1cc(C(c2ccccn2)c2cn(C)c3ccccc23)c2ccccc21
EC50 [18]: 55.6 µM (active)
EC50 [19]: 0.157 µM (active)
EC50 [20]: > 180 µM (inactive)
EC50 [21]: 7.76 µM (active)
EC50 [22]: > 150 µM (inactive)

CN1CCC(OC(=O)c2cc3cc(Cl)cc(Cl)c3oc2=O)CC1
IC50 (Interleukin-8 [23]): 8.62 µM (active)
IC50 (Interleukin-8 [24]): 3.45 µM (active)

COc1ccc(NC(=O)Nc2cccc3c2O[C@H](CN(C)C(=O)Nc2ccc(C(F)(F)F)cc2)[C@@H](C)CN([C@H](C)CO)C3=O)cc1
IC50 (Melanocortin receptor 4): 23.1 µM (inactive)
IC50 [1]: > 64.6 µM (inactive)
IC50 (Fatty acid synthase [25]): 11.6 µM (active)
IC50 (Fatty acid synthase [26]): 7.98 µM (active)

c1cnc2nc(SCc3cn4ccccc4n3)[nH]c2c1
IC50 [27]: > 99 µM (inactive)
IC50 [28]: > 99 µM (inactive)

Cn1c(SCC(=O)c2ccccc2)nnc1-c1sc2ccccc2c1Cl
IC50 [27]: > 99 µM (inactive)
IC50 [28]: > 99 µM (inactive)

CCc1ccc(O)c(/N=C/c2cccc(C)c2O)c1
IC50 [4]: 29.4 µM (active)
IC50 [5]: > 100 µM (inactive)
IC50 (Prothrombin): 11.8 µM (active)
CC50 [29]: 100 µM (active)
IC50 [6]: 45.5 µM (active)

CCOC(=O)CNC(=O)[C@H](Cc1ccccc1)NC(=O)OCc1ccccc1 (Cbz-Phe-Gly-OEt)
CC50 [30]: 58.5 µM (active)
CC50 [31]: 32.1 µM (active)

CCCC1COC(Cn2cncn2)(c2ccc(Cl)cc2Cl)O1 (configuration not stated) [PROPICONAZOLE]
EC50 [32]: < 0.1 µM (active)
EC50 [33]: > 60 µM (not active)
AC50 [34]: < 0.195 µM (active)
AC50 [35]: 70.8 µM (inconclusive)
EC50 (cells): 0.041 µM (active)
